Assay results reported in US11298314B2, “Injectable composition for localized fat reduction without pain, edema, and side effects, and method for preparing same” (AMI PHARM CO., LTD., priority 2017, dated 2022).
“Also recorded” adds a separate entry of the source.

Legend:
3T3-L1 adipocytes = experiment: Lipolysis assay (glycerol release); format: cell-based; details: 48 hours; listed as DCA single
Procedure: The glycerol activity assay was performed with the test materials to determine whether the cell death in the MTT assay was due to necrosis or lipolysis. Glycerol is a specific marker that increases when fat breaks down. Abcam Lipolysis Assay Kit (Colorimetric) was used according to the manufacturer's manual, and the method of the test was as follows: […] And then the lysis was induced. […] After adding the glycerol assay complex (50 μl) thereto, the solution was incubated at room temperature for 30 minutes. Absorbance was measured at OD 570 (using standard curve for absolute determination).

inguinal fat pad = details: 0.2 ml s.c. once into inguinal fat pad, 8 days post-injection; listed as DCA single composition
[1] = Formulation stability of PPC injectable preparations: property, transparency, particle size, pH; details: based on PPC 5.0%
[2] = tested on: tissues of the injected area (rat paw); experiment: H&E staining histological test (inflammation) of injected rat paw; format: in vivo, Sprague Dawley rats; details: bile acid single composition 1.0% (w/v), injected rat paw
Procedure: The tissues of the injected area were dissected, fixed with 10% formalin, and then the specimen was prepared and images were captured using an optical microscope. The degree of inflammation was evaluated as follows.

paw of the rats = experiment: Rat paw edema; format: in vivo, Sprague Dawley rats; details: for degree of edema in words: 2 hours after administration, rat paw; for degree of edema, 1 hour after administration / degree of edema, 2 hours after administration / degree of edema, Immediately after administration: 0.1 ml into rat paw
Procedure, shortened: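 Male Sprague Dawley rats (6 weeks old, 170–200 g) received 0.1 ml of PBS or test composition into the paw. Paw thickness measured by caliper before, immediately after, and 1 or 2 h post-injection; edema graded 0–4, with injection-site skin lesions photographed.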

[3] = tested on: Caspase 3 in 3T3-L1 adipocytes; experiment: Caspase 3 activity assay; format: cell-based
Procedure: The Caspase 3 activity assay was performed with the test materials to determine whether the cell death in the result of MTT assay was due to necrosis or apoptosis. The Caspase 3 specifically increases when apoptosis occurs and is a marker of apoptosis. […] The cells were then treated with 50 ul of cell lysis buffer (10 mM Tris-HCl, 10 mM NaH2PO4/NaHPO4, pH 7.5, 130 mM NaCl, 1% Triton X-100 and 10 mM sodium pyrophosphate) and left at 4° C. for […]. The supernatant was collected by centrifugation at 1000× rpm for 1 minute, and protein quantification was performed by BCA method. The 50 μl of reaction buffer (4 mM HEPES, pH 7.5, 10% glycerol, 2 mM dithiothreitol) and 0.5 μl of 4 mM DEVD-p-NA were added to each sample and reacted at 37° C. for 1 hour. Then wavelength was measured with a […] at 405 nm.

sole of the rat paws = experiment: Measurement of skin lesion (erythema) on rat paw; format: in vivo, Sprague Dawley rats; details: for skin lesion (erythema) in words: 2 hours after administration;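 for grade of skin lesion (erythema), 1 hour after administration: grades − to ++++ mean no to extremely severe erythema versus before injection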;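 for grade of skin lesion (erythema), 2 hours after administration: grades − to ++++ mean no to extremely severe erythema versus before injection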;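 for grade of skin lesion (erythema), Immediately after administration: grades − to ++++ mean no to extremely severe erythema versus before injection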
Procedure, shortened: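 Male Sprague Dawley rats (6 weeks, 170–200 g) received 0.1 ml test composition or PBS injected into the paw. Paw thickness measured by caliper before, immediately after, and 1 or 2 h post-injection; sole lesions photographed and graded 0–4.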

[4] = bile acid single composition 1.0% (w/v)
[5] = bile acid single composition 2.5% (w/v)
[6] = bile acid single composition 5.0% (w/v)
[7] = bile acid single composition 7.5% (w/v)

C[C@H](CCC(=O)O)[C@H]1CC[C@H]2[C@@H]3CC[C@@H]4C[C@H](O)CC[C@]4(C)[C@H]3C[C@H](O)[C@]12C [DCA, (4R)-4-[(3R,5R,8R,9S,10S,12S,13R,14S,17R)-3,12-dihydroxy-10,13-dimethyl-2,3,4,5,6,7,8,9,11,12,14,15,16,17-tetradecahydro-1H-cyclopenta[a]phenanthren-17-yl]pentanoic acid]
glycerol release / cytolytic activity (3T3-L1 adipocytes): slightly higher cytolytic activity than at 24 hours; also recorded: slightly higher cytolytic activity than that of 24 hours | inflammation at the site of administration, dermal and epidermal tissues (inguinal fat pad): severe inflammation was induced | bile acid concentration at which stable injectable preparations can be made [1]: ≥ 2.1% | Inflammation (H&E), BA % (w/v) 1.0 [2]: +++ | degree of edema in words (paw of the rats; listed as DCA 1.0%): severe | degree of edema in words (paw of the rats; listed as DCA 2.5%): “severe” and “extremely severe” | degree of edema, 1 hour after administration (paw of the rats; [4]): +++ (severe edema [+++, (the degree of swelling was 40-60% compared to before the injection)]) | degree of edema, 2 hours after administration (paw of the rats; [4]): +++ (severe edema [+++, (the degree of swelling was 40-60% compared to before the injection)]) | degree of edema, Immediately after administration (paw of the rats; [4]): ++ (moderate edema [++, (the degree of swelling was 20-40% compared to before the injection)]) | degree of edema, 1 hour after administration (paw of the rats; [5]): ++++ (extremely severe edema [++++, (the degree of swelling was 60% or more compared to before the injection)]) | degree of edema, 2 hours after administration (paw of the rats; [5]): ++++ (extremely severe edema [++++, (the degree of swelling was 60% or more compared to before the injection)]) | degree of edema, Immediately after administration (paw of the rats; [5]): ++ (moderate edema [++, (the degree of swelling was 20-40% compared to before the injection)]) | degree of edema, 1 hour after administration (paw of the rats; [6]): ++++ (extremely severe edema [++++, (the degree of swelling was 60% or more compared to before the injection)]) | degree of edema, 2 hours after administration (paw of the rats; [6]): ++++ (extremely severe edema [++++, (the degree of swelling was 60% or more compared to before the injection)]) | degree of edema, Immediately after administration (paw of the rats; [6]): ++ (moderate edema [++, (the degree of swelling was 20-40% compared to before the injection)]) | degree of edema, 1 hour after administration (paw of the rats; [7]): ++++ (extremely severe edema [++++, (the degree of swelling was 60% or more compared to before the injection)]) | degree of edema, 2 hours after administration (paw of the rats; [7]): ++++ (extremely severe edema [++++, (the degree of swelling was 60% or more compared to before the injection)]) | degree of edema, Immediately after administration (paw of the rats; [7]): ++ (moderate edema [++, (the degree of swelling was 20-40% compared to before the injection)]) | caspase-3 activity ([3]; after 48 hours): returned to pretreatment levels | caspase-3 activity ([3]; up to 24 hours): some caspase-3 activity | skin lesion (erythema) in words (sole of the rat paws; listed as DCA 1.0%): Moderate | skin lesion (erythema) in words (sole of the rat paws; listed as DCA 2.5%): “severe” and “extremely severe” | grade of skin lesion (erythema), 1 hour after administration (sole of the rat paws; [4]): ++ | grade of skin lesion (erythema), 2 hours after administration (sole of the rat paws; [4]): ++ | grade of skin lesion (erythema), Immediately after administration (sole of the rat paws; [4]): ++ | grade of skin lesion (erythema), 1 hour after administration (sole of the rat paws; [5]): ++++ | grade of skin lesion (erythema), 2 hours after administration (sole of the rat paws; [5]): +++ | grade of skin lesion (erythema), Immediately after administration (sole of the rat paws; [5]): ++ | grade of skin lesion (erythema), 1 hour after administration (sole of the rat paws; [6]): ++++ | grade of skin lesion (erythema), 2 hours after administration (sole of the rat paws; [6]): ++++ | grade of skin lesion (erythema), Immediately after administration (sole of the rat paws; [6]): ++ | grade of skin lesion (erythema), 1 hour after administration (sole of the rat paws; [7]): ++++ | grade of skin lesion (erythema), 2 hours after administration (sole of the rat paws; [7]): ++++ | grade of skin lesion (erythema), Immediately after administration (sole of the rat paws; [7]): ++
